This passage reports Activity results from ChEMBL document CHEMBL4425195, “Isolation of three new annonaceous acetogenins from Graviola fruit (Annona muricata) and their anti-proliferation on human prostate cancer cell PC-3” (Bioorg Med Chem Lett, 2016).

This assay relates to PC-3. Put plainly: Antiproliferative activity against human PC3 cells at 20 ug/ml after 24 hrs by MTT assay. It counts as functional, cell-based. Background: Tetrazolium dyes change colour on reduction, which living cells bring about.

The source made the active and inactive calls. The rule behind the calls is not given here.

For `CCCCCCCCCC[C@@H](O)[C@@H](O)C[C@H](O)[C@@H]1CC[C@@H](CCCCCCCCCC[C@H](O)CC2=C[C@H](C)OC2=O)O1`, the result was Active.

With `CCCCCCCCCCCC/C=C/CC[C@H](O)[C@@H]1CC[C@@H]([C@@H](O)CCC(O)CCCCC[C@H](O)CC2=C[C@H](C)OC2=O)O1` (some centres not stated), the outcome was Active.
